Test results from article PMC10620772, “Design, synthesis, and biological evaluation of new pyrimidine-5-carbonitrile derivatives as novel anti-cancer, dual EGFR^WT/COX-2 inhibitors with docking studies” (RSC Advances, 2023).

Key:
Assay in all cases: NCI60 antitumor screening
Assay type in all cases: cell-based, human
[1] = tested on: CCRF-CEM
[2] = tested on: HL-60(TB)
[3] = tested on: K-562
[4] = tested on: RPMI-8226
[5] = tested on: A549/ATCC
[6] = tested on: HOP-62
[7] = tested on: HOP-92
[8] = tested on: NCI-H226
[9] = tested on: NCI-H23
[10] = tested on: NCI-H322M
[11] = tested on: NCI-H522
[12] = tested on: HCT-116
[13] = tested on: HCT-15
[14] = tested on: HT29
[15] = tested on: SW-620
[16] = tested on: SF-539
[17] = tested on: LOX IMVI
[18] = tested on: MALME-3M
[19] = tested on: M14; details: Homo sapiens, M14, five-dose
[20] = Homo sapiens, NCI-H322M, five-dose
[21] = Homo sapiens, SF-539, five-dose

Q: `N#Cc1c(-c2ccc(F)cc2)nc(SCc2ccccc2)nc1N1CCNCC1` [4e, 2-(Benzylthio)-4-(4-fluorophenyl)-6-(piperazin-1-yl) pyrimidine-5-carbonitrile] was tested. Which GI50 ([1]; Homo sapiens, CCRF-CEM, five-dose) did it give?
A: Its GI50 is 13.9 µM.

Q: And the CC50 ([1]; Homo sapiens, CCRF-CEM, five-dose, read-out: LC50 (the source's name))?
A: The CC50 was 69 µM.

Q: And the inhibition at 10 µM ([1]; Homo sapiens, 10 μM single dose, CCRF-CEM (leukaemia), read-out: growth inhibition percent (GI%))?
A: Its inhibition at 10 µM is greater than 100%.

Q: What about the TGI ([1]; five-dose) of the same molecule?
A: The TGI was 31.00 µM.

Q: What about the GI50 ([2]; Homo sapiens, HL-60, five-dose) of the same molecule?
A: The GI50 was 4.5 µM.

Q: What about the CC50 ([2]; Homo sapiens, HL-60, five-dose, read-out: LC50 (the source's name)) of the same molecule?
A: Its CC50 is 46.5 µM.

Q: And the inhibition at 10 µM ([2]; Homo sapiens, 10 μM single dose, HL-60(TB) (leukaemia), read-out: growth inhibition percent (GI%))?
A: The inhibition at 10 µM was greater than 100%.

Q: And the TGI ([2]; five-dose)?
A: Its TGI is 17.30 µM.

Q: What about the GI50 ([3]; Homo sapiens, K562, five-dose) of the same molecule?
A: Its GI50 is 2.21 µM.

Q: And the CC50 ([3]; Homo sapiens, K562, five-dose, read-out: LC50 (the source's name))?
A: The CC50 was 18.7 µM.

Q: And the inhibition at 10 µM ([3]; Homo sapiens, 10 μM single dose, (leukaemia), read-out: growth inhibition percent (GI%))?
A: Its inhibition at 10 µM is greater than 100%.

Q: And the TGI ([3]; five-dose)?
A: The TGI was 5.42 µM.

Q: What about the GI50 ([4]; Homo sapiens, RPMI-8226, five-dose) of the same molecule?
A: Its GI50 is 3.99 µM.

Q: And the CC50 ([4]; Homo sapiens, RPMI-8226, five-dose, read-out: LC50 (the source's name))?
A: Its CC50 is 65.4 µM.

Q: What about the inhibition at 10 µM ([4]; Homo sapiens, 10 μM single dose, RPMI-8226 (leukaemia), read-out: growth inhibition percent (GI%)) of the same molecule?
A: Its inhibition at 10 µM is greater than 100%.

Q: And the TGI ([4]; five-dose)?
A: The TGI was 17.50 µM.

Q: What about the GI50 ([5]; Homo sapiens, A549, five-dose) of the same molecule?
A: Its GI50 is 8.1 µM.

Q: What about the LC50 (concentration killing 50% of cells) ([5]; Homo sapiens, A549, five-dose) of the same molecule?
A: The LC50 (concentration killing 50% of cells) was 50.2 µM.

Q: And the inhibition at 10 µM ([5]; Homo sapiens, 10 μM single dose, A549/ATCC (non-small cell lung cancer), read-out: growth inhibition percent (GI%))?
A: Its inhibition at 10 µM is greater than 100%.

Q: What about the TGI ([5]; five-dose) of the same molecule?
A: The TGI was 21.50 µM.

Q: What about the GI50 ([6]; Homo sapiens, HOP-62, five-dose) of the same molecule?
A: Its GI50 is 13.2 µM.

Q: What about the CC50 ([6]; Homo sapiens, HOP-62, five-dose, read-out: LC50 (the source's name)) of the same molecule?
A: Its CC50 is 59.9 µM.

Q: And the inhibition at 10 µM ([6]; Homo sapiens, 10 μM single dose, HOP-62 (non-small cell lung cancer), read-out: growth inhibition percent (GI%))?
A: The inhibition at 10 µM was greater than 100%.

Q: What about the TGI ([6]; five-dose) of the same molecule?
A: Its TGI is 28.10 µM.

Q: And the GI50 ([7]; Homo sapiens, HOP-92, five-dose)?
A: Its GI50 is 4.2 µM.

Q: What about the CC50 ([7]; Homo sapiens, HOP-92, five-dose, read-out: LC50 (the source's name)) of the same molecule?
A: Its CC50 is 48.4 µM.

Q: And the inhibition at 10 µM ([7]; Homo sapiens, 10 μM single dose, HOP-92 (non-small cell lung cancer), read-out: growth inhibition percent (GI%))?
A: The inhibition at 10 µM was greater than 100%.

Q: What about the TGI ([7]; five-dose) of the same molecule?
A: The TGI was 18.10 µM.

Q: What about the GI50 ([8]; Homo sapiens, NCI-H226, five-dose) of the same molecule?
A: Its GI50 is 13.8 µM.

Q: And the CC50 ([8]; Homo sapiens, NCI-H226, five-dose, read-out: LC50 (the source's name))?
A: Its CC50 is 81.3 µM.

Q: What about the inhibition at 10 µM ([8]; Homo sapiens, 10 μM single dose, NCI-H226 (non-small cell lung cancer), read-out: growth inhibition percent (GI%)) of the same molecule?
A: The inhibition at 10 µM was greater than 100%.

Q: And the TGI ([8]; five-dose)?
A: Its TGI is 33.40 µM.

Q: And the GI50 ([9]; Homo sapiens, NCI-H23, five-dose)?
A: Its GI50 is 15.1 µM.

Q: What about the CC50 ([9]; Homo sapiens, NCI-H23, five-dose, read-out: LC50 (the source's name)) of the same molecule?
A: The CC50 was 56.5 µM.

Q: And the inhibition at 10 µM ([9]; Homo sapiens, 10 μM single dose, NCI-H23 (non-small cell lung cancer), read-out: growth inhibition percent (GI%))?
A: The inhibition at 10 µM was greater than 100%.

Q: And the TGI ([9]; five-dose)?
A: Its TGI is 29.30 µM.

Q: What about the GI50 [10, 20] of the same molecule?
A: The GI50 was 14.3 µM.

Q: And the LC50 (50% lethal concentration) [10, 20]?
A: The LC50 (50% lethal concentration) was 54.2 µM.

Q: And the inhibition at 10 µM ([10]; Homo sapiens, 10 μM single dose, NCI-H322M (non-small cell lung cancer), read-out: growth inhibition percent (GI%))?
A: The inhibition at 10 µM was greater than 100%.

Q: And the TGI ([10]; five-dose)?
A: Its TGI is 27.90 µM.

Q: What about the GI50 ([11]; Homo sapiens, NCI-H522, five-dose) of the same molecule?
A: The GI50 was 11.3 µM.

Q: And the CC50 ([11]; Homo sapiens, NCI-H522, five-dose, read-out: LC50 (the source's name))?
A: Its CC50 is 55.8 µM.

Q: And the inhibition at 10 µM ([11]; Homo sapiens, 10 μM single dose, NCI-H522 (non-small cell lung cancer), read-out: growth inhibition percent (GI%))?
A: Its inhibition at 10 µM is greater than 100%.

Q: And the TGI ([11]; five-dose)?
A: Its TGI is 25.10 µM.

Q: And the GI50 ([12]; Homo sapiens, HCT-116, five-dose)?
A: Its GI50 is 3.51 µM.

Q: And the CC50 ([12]; Homo sapiens, HCT-116, five-dose, read-out: LC50 (the source's name))?
A: The CC50 was 38.1 µM.

Q: And the inhibition at 10 µM ([12]; Homo sapiens, 10 μM single dose, HCT-116 (colon cancer), read-out: growth inhibition percent (GI%))?
A: Its inhibition at 10 µM is greater than 100%.

Q: What about the TGI ([12]; five-dose) of the same molecule?
A: Its TGI is 11.60 µM.

Q: What about the GI50 ([13]; Homo sapiens, HCT-15, five-dose) of the same molecule?
A: Its GI50 is 5.05 µM.

Q: What about the CC50 ([13]; Homo sapiens, HCT-15, five-dose, read-out: LC50 (the source's name)) of the same molecule?
A: The CC50 was 43.8 µM.

Q: What about the inhibition at 10 µM ([13]; Homo sapiens, 10 μM single dose, HCT-15 (colon cancer), read-out: growth inhibition percent (GI%)) of the same molecule?
A: The inhibition at 10 µM was greater than 100%.

Q: What about the TGI ([13]; five-dose) of the same molecule?
A: The TGI was 17.50 µM.

Q: And the inhibition at 10 µM ([14]; Homo sapiens, HT-29, 10 μM single dose, HT29 (colon cancer), read-out: growth inhibition percent (GI%))?
A: The inhibition at 10 µM was greater than 100%.

Q: And the GI50 ([14]; Homo sapiens, HT-29, five-dose)?
A: Its GI50 is 3.3 µM.

Q: What about the CC50 ([14]; Homo sapiens, HT-29, five-dose, read-out: LC50 (the source's name)) of the same molecule?
A: The CC50 was 36.6 µM.

Q: What about the TGI ([14]; five-dose) of the same molecule?
A: The TGI was 10.50 µM.

Q: And the GI50 ([15]; Homo sapiens, SW-620, five-dose)?
A: The GI50 was 3.38 µM.

Q: And the CC50 ([15]; Homo sapiens, SW-620, five-dose, read-out: LC50 (the source's name))?
A: Its CC50 is 40.9 µM.

Q: And the inhibition at 10 µM ([15]; Homo sapiens, 10 μM single dose, SW-620 (colon cancer), read-out: growth inhibition percent (GI%))?
A: Its inhibition at 10 µM is greater than 100%.

Q: What about the TGI ([15]; five-dose) of the same molecule?
A: The TGI was 13.10 µM.

Q: And the GI50 [16, 21]?
A: Its GI50 is 15.7 µM.

Q: What about the LC50 [16, 21] of the same molecule?
A: Its LC50 is 54.9 µM.

Q: What about the inhibition at 10 µM ([16]; Homo sapiens, 10 μM single dose, SF-539 (CNS cancer), read-out: growth inhibition percent (GI%)) of the same molecule?
A: The inhibition at 10 µM was greater than 100%.

Q: And the TGI ([16]; five-dose)?
A: Its TGI is 29.40 µM.

Q: What about the GI50 ([17]; Homo sapiens, LOX IMVI, five-dose) of the same molecule?
A: The GI50 was 1.71 µM.

Q: And the CC50 ([17]; Homo sapiens, LOX IMVI, five-dose, read-out: LC50 (the source's name))?
A: Its CC50 is 6.48 µM.

Q: And the inhibition at 10 µM ([17]; Homo sapiens, 10 μM single dose, LOX IMVI (melanoma), read-out: growth inhibition percent (GI%))?
A: The inhibition at 10 µM was greater than 100%.

Q: What about the TGI ([17]; five-dose) of the same molecule?
A: The TGI was 3.33 µM.

Q: And the GI50 ([18]; Homo sapiens, Malme-3M, five-dose)?
A: Its GI50 is 14.1 µM.

Q: And the CC50 ([18]; Homo sapiens, Malme-3M, five-dose, read-out: LC50 (the source's name))?
A: The CC50 was 56.3 µM.

Q: And the inhibition at 10 µM ([18]; Homo sapiens, 10 μM single dose, MALME-3M (melanoma), read-out: growth inhibition percent (GI%))?
A: The inhibition at 10 µM was greater than 100%.

Q: What about the TGI ([18]; five-dose) of the same molecule?
A: Its TGI is 28.20 µM.

Q: And the GI50 [19]?
A: Its GI50 is 12 µM.

Q: And the CC50 ([19]; read-out: LC50 (the source's name))?
A: The CC50 was 51.4 µM.
